Source: US8426447B2, “Spiro-tricyclic ring compounds as beta-secretase modulators and methods of use” (Amgen Inc., priority 2008, dated 2013)
Blank lines part the entries; values can stand above or below the compound they belong to.

Key:
[1] = molecular target: T1, BACE1 (Homo sapiens, UniProt P56817); experiment: In Vitro BACE Cell-based Assay (HEK cell assay): Aβ40 in conditioned medium of cells stably expressing Amyloid Precursor Protein, sandwich ELISA; details: read-out: HEK cell assay
Summary of the method: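 APP-expressing cells were cultured 24 h in DMEM/10% FBS, then treated 24 h with compounds in 10-point dose response (top 100 μM or 10 μM; 0.1% DMSO final). Secreted Aβ40 was quantified by sandwich ELISA (pAb40 capture, biotinylated 6E10 detection, Europium TRF); IC50 from percent inhibition versus concentration.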

[2] = molecular target: T1, BACE1; experiment: In Vitro Enzymatic BACE FRET (Fluorescence Resonance Energy Transfer) Assay; format: biochemical; details: read-out: BACE1 FRET assay
Summary of the method: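 Fluorescence read-out after Tris addition raises pH to neutrality and ends the reaction. Before that, a peptide substrate carrying fluorophore and quencher across the BACE cleavage site (50 nM) is incubated with enzyme for one hour at pH 4.2 in acetate containing 10% DMSO and sub-micellar genapol.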

[3] = HEK cell-based assay, Aβ40 in conditioned medium, IC50 class symbols
[4] = in vitro BACE FRET enzyme assay, IC50 class symbols

T1 sequence (P56817 46-501, species assumed): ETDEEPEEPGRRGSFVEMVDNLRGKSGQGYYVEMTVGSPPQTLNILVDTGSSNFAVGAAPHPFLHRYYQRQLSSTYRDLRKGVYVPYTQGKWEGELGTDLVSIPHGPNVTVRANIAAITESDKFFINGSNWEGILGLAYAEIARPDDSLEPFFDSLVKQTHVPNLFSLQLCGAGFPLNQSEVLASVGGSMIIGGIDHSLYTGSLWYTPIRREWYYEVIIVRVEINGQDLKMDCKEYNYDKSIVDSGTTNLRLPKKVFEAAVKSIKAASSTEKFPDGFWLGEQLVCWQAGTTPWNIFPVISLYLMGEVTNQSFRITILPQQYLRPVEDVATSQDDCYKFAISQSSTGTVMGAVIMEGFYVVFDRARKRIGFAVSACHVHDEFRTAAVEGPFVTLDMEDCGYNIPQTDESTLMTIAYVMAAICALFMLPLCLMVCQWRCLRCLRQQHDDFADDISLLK

- IC50 ([1]; Table IV, class symbols): > 5 µM
- IC50 ([2]; Table IV, class symbols): 1 to 5 µM
SMILES: CC(C)(C)C#Cc1ccc2c(c1)[C@]1(COC(N)=N1)c1cc(Cl)ncc1O2 [compound 846]

- IC50 ([1]; Table IV, class symbols): < 0.1 µM
- IC50 ([2]; Table IV, class symbols): < 0.1 µM
SMILES: NC1=N[C@@]2(CO1)c1cc(-c3cccnc3)ccc1Oc1ccc(-c3cnoc3)cc12 [compound 623]

- IC50 [1]: < 0.1 µM
- IC50 [2]: < 0.1 µM
SMILES: CC(C)(C)COc1ccc2c(c1)[C@@]1(COC(N)=N1)c1cc(-c3cccnc3F)cnc1O2 [compound 952]

- IC50 ([1]; Table IV, class symbols): 0.1 to 1 µM
- IC50 ([2]; Table IV, class symbols): 0.1 to 1 µM
SMILES: COc1ccc2c(c1)[C@]1(COC(N)=N1)c1cc(NC(=O)c3ccccn3)ccc1O2 [compound 615]

- IC50 [1]: < 0.1 µM
- IC50 [2]: < 0.1 µM
SMILES: N#Cc1ccc(-c2ccc3c(c2)[C@@]2(COC(N)=N2)c2cc(-c4cccnc4)ccc2O3)cn1 [compound 683]

- IC50 ([1]; Table IV, class symbols): 0.1 to 1 µM
- IC50 ([2]; Table IV, class symbols): < 0.1 µM
SMILES: NC1=N[C@@]2(CO1)c1cc(-c3cncnc3)ccc1Oc1ccc(-c3cccc(O)c3)cc12 [compound 891]

- IC50 [1]: > 5 µM
- IC50 [2]: > 5 µM
SMILES: CC(C)(C)COc1ccc2c(n1)[C@@]1(COC(N)=N1)c1cc(Br)ccc1O2 [compound 734]

- IC50 ([1]; Table IV, class symbols): > 5 µM
- IC50 ([2]; Table IV, class symbols): > 5 µM
SMILES: CN(C)c1ncc(-c2ccc3c(c2)[C@@]2(COC(N)=N2)c2cc(OCC(C)(C)C)ccc2O3)cn1 [compound 838]

- IC50 [1]: < 0.1 µM
- IC50 [2]: < 0.1 µM
SMILES: N#Cc1cccc(-c2ccc3c(c2)[C@]2(COC(N)=N2)c2cc(-c4cccnc4)ccc2O3)c1 [compound 961]

- IC50 [1]: < 0.1 µM
- IC50 [2]: < 0.1 µM
SMILES: CC1(COc2cc3c(cc2F)Oc2ccc(-c4cncnc4)cc2[C@@]32COC(N)=N2)COC1 [compound 712]

- IC50 [1]: 1 to 5 µM
- IC50 [2]: 0.1 to 1 µM
SMILES: CC(=O)c1cccc(-c2ccc3c(c2)[C@@]2(COC(N)=N2)c2cc(OCC(C)(C)C)ccc2O3)c1 [compound 973]

- IC50 ([1]; Table IV, class symbols): > 5 µM
- IC50 ([2]; Table IV, class symbols): 1 to 5 µM
SMILES: NC1=N[C@@]2(CO1)c1cc(Br)ccc1Oc1ccc(/C=C/C(=O)O)cc12 [compound 919]

Second part, the compound before the results:

SMILES: NC1=N[C@@]2(CO1)c1cc(Br)ccc1Oc1cnc(Cl)cc12 [compound 548]
- IC50 ([1]; Table IV, class symbols): > 5 µM
- IC50 ([2]; Table IV, class symbols): > 5 µM

SMILES: CC1(C)CC(c2cc(F)c3c(c2)[C@]2(COC(N)=N2)c2cc(-c4cncnc4)ccc2O3)=CCO1 [compound 465]
- IC50 ([1]; HEK cells): < 0.1 µM
- IC50 [2]: < 0.1 µM

SMILES: COC(C)(C)COc1cnc2c(c1)[C@]1(COC(N)=N1)c1cc(-c3ccccc3)ccc1O2 [compound 350]
- IC50 [1, 3]: < 0.1 µM
- IC50 [2, 4]: < 0.1 µM

SMILES: CC(C)(C)CCc1ccc2c(c1)[C@]1(COC(N)=N1)c1cc(Oc3ccccn3)ccc1O2 [compound 205]
- IC50 ([1]; Table III, IC50's in uM ranges): 0.1 to 1 µM
- IC50 ([2]; Table III, IC50's in uM ranges): < 0.1 µM

SMILES: NC1=NC2(CO1)c1cc(-c3cccnc3)ccc1Oc1ccc(-c3cccnc3)cc12 [Example 123, 2′,7′-di(pyridin-3-yl)-5H-spiro[oxazole-4,9′-xanthen]-2-amine]
- IC50 ([1]; Table III, IC50's in uM ranges): < 0.1 µM
- IC50 ([2]; Table III, IC50's in uM ranges): < 0.1 µM

SMILES: CC(C)N1CC=C(c2ccc3c(c2)[C@]2(COC(N)=N2)c2cc(-c4cncnc4)ccc2O3)CC1 [compound 714]
- IC50 [1]: < 0.1 µM
- IC50 [2]: 0.1 to 1 µM

SMILES: CC(C)(C)COc1ccc2c(c1)[C@]1(COC(N)=N1)c1cc(C#CC3CC3)ccc1O2 [Example 40, (4S)-2′-(cyclopropylethynyl)-7′-(2,2-dimethylpropoxy)spiro[1,3-oxazole-4,9′-xanthen]-2-amine]
- IC50 ([1]; Table II, Aβ40, 24 h incubation): 0.1 to 1 µM
- IC50 ([2]; Table II): < 0.1 µM

SMILES: CC(C)(O)C#Cc1ccc2c(c1)[C@]1(COC(N)=N1)c1cc(-c3cccnc3)ccc1O2 [151a]
- IC50 ([1]; Table III, IC50's in uM ranges): < 0.1 µM
- IC50 ([2]; Table III, IC50's in uM ranges): < 0.1 µM

SMILES: NC1=N[C@@]2(CO1)c1cc(-c3cccnc3)ccc1Oc1ccc(Cl)nc12 [compound 393]
- IC50 [1, 3]: 1 to 5 µM
- IC50 [2, 4]: 0.1 to 1 µM

SMILES: NC1=N[C@@]2(CO1)c1cc(-c3cc(Cl)ccc3F)ccc1Oc1cnc(-c3cccnc3)cc12 [compound 367]
- IC50 [1, 3]: < 0.1 µM
- IC50 [2, 4]: < 0.1 µM

SMILES: COc1ccc2c(c1)[C@]1(COC(N)=N1)c1cc(NC(=O)c3cc(Cl)ccn3)ccc1O2 [compound 534]
- IC50 ([1]; Table IV, class symbols): > 5 µM
- IC50 ([2]; Table IV, class symbols): 1 to 5 µM

SMILES: CC(C)(C)OCCOc1ccc2c(c1)[C@]1(COC(N)=N1)c1cc(-c3cccnc3)ccc1O2 [compound 159]
- IC50 ([1]; Table III, IC50's in uM ranges): 0.1 to 1 µM
- IC50 ([2]; Table III, IC50's in uM ranges): < 0.1 µM

SMILES: NC1=N[C@@]2(CO1)c1cc(-c3cccnc3F)ccc1Oc1c(F)cc(N3C[C@@H]4C[C@H]3CO4)cc12 [compound 416]
- IC50 [1, 3]: < 0.1 µM
- IC50 [2, 4]: < 0.1 µM

SMILES: COc1ccc2c(c1)C1(COC(N)=N1)c1cc(Br)ccc1O2 (stereo not shown) [Example 35, 2′-bromo-7′-methoxyspiro[1,3-oxazole-4,9′-xanthen]-2-amine]
- IC50 ([1]; Table 1, Aβ40, 24 h incubation): > 5 µM
- IC50 ([2]; Table 1): > 5 µM
